Experiments:
Test in all cases: AlphaScreen Assay
[1] = target: Vascular endothelial growth factor receptor 2 (Homo sapiens, UniProt P35968)
Ephrin type-B receptor 4 = target: T1, Ephrin type-B receptor 4 (Homo sapiens, UniProt P54760)
T1 sequence (P54760 whole entry): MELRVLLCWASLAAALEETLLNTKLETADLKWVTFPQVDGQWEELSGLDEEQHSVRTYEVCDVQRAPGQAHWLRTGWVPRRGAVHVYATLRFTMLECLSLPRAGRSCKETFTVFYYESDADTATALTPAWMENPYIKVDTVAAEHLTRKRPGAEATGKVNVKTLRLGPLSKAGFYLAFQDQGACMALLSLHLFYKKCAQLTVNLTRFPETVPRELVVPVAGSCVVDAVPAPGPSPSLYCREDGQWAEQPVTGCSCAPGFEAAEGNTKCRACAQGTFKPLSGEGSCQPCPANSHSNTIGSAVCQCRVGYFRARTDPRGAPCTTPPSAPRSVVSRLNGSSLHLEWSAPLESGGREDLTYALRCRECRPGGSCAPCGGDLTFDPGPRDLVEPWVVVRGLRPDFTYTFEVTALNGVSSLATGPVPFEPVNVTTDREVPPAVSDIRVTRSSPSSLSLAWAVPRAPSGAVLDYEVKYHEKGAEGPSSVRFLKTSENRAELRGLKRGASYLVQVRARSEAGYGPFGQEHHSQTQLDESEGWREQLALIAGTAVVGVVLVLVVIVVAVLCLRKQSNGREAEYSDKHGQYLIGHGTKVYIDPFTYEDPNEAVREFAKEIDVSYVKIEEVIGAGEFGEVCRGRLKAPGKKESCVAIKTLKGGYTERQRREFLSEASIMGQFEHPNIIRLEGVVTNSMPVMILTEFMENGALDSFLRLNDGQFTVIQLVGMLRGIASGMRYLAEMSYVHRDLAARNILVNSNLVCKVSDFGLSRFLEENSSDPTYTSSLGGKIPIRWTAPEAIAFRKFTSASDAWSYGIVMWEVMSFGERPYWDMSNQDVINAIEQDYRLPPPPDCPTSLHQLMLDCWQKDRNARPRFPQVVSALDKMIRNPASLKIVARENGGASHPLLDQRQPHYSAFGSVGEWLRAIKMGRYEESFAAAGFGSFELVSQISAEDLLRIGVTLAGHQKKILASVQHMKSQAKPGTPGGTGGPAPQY

Ephrin type-A receptor 2 = Ephrin type-A receptor 2 (Homo sapiens, UniProt P29317)
[2] = target: Receptor tyrosine-protein kinase erbB-2 (Homo sapiens, UniProt P04626)
Chain of Receptor tyrosine-protein kinase erbB-2 (P04626 whole entry): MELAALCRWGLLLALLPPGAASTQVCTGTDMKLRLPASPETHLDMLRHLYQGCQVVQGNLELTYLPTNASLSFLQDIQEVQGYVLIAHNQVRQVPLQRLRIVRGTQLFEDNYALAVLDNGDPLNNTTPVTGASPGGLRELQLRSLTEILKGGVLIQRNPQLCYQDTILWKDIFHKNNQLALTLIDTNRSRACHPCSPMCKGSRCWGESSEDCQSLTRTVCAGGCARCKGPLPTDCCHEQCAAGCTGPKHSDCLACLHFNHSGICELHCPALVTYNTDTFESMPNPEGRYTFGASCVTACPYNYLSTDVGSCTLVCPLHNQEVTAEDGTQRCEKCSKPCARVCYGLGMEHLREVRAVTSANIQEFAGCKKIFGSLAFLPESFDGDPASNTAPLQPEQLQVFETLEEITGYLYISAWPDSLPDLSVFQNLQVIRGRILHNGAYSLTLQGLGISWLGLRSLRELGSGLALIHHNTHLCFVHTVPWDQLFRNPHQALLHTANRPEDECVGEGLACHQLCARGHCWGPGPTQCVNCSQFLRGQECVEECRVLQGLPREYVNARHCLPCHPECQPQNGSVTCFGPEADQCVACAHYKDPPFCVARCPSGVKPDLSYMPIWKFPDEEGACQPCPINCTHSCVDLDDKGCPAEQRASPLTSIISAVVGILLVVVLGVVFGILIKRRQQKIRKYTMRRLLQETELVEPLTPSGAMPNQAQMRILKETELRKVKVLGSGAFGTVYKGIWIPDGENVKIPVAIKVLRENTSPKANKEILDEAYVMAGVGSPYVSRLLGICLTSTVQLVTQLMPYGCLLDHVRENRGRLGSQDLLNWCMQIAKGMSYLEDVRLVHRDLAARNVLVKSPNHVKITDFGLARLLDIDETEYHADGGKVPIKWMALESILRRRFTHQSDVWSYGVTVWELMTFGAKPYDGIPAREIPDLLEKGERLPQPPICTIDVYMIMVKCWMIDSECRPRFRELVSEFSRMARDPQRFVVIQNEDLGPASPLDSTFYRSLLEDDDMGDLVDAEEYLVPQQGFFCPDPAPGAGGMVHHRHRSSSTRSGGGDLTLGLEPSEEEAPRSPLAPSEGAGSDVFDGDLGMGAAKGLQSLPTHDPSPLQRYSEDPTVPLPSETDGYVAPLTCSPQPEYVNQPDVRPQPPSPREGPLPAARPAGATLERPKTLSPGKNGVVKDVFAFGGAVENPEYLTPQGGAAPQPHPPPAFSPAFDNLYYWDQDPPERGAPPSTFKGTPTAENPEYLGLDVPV

Chain of Ephrin type-A receptor 2 (P29317 whole entry): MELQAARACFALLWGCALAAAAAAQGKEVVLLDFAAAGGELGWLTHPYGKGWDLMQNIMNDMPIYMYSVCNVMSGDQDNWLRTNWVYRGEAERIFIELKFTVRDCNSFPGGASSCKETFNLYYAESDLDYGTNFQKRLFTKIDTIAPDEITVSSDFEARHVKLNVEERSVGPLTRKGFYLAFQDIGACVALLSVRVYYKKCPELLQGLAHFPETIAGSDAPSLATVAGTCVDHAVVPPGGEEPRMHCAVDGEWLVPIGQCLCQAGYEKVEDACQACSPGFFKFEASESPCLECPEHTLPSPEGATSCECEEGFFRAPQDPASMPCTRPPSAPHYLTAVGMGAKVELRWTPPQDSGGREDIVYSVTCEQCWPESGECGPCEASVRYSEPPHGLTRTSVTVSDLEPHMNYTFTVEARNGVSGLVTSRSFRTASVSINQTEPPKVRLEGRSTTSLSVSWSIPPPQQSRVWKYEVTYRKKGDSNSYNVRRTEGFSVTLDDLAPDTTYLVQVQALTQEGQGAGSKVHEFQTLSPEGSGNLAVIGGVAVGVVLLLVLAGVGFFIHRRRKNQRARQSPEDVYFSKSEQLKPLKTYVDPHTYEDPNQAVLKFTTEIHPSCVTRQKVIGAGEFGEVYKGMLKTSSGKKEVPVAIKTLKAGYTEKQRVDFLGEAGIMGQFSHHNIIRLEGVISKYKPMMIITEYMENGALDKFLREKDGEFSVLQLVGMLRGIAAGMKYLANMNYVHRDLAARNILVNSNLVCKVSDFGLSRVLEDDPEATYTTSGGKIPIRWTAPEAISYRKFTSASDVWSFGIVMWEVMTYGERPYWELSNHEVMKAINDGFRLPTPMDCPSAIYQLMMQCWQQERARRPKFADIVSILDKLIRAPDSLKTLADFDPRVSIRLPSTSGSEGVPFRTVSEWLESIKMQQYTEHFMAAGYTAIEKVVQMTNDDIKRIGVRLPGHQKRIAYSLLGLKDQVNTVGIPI
Chain of Vascular endothelial growth factor receptor 2 (P35968 whole entry): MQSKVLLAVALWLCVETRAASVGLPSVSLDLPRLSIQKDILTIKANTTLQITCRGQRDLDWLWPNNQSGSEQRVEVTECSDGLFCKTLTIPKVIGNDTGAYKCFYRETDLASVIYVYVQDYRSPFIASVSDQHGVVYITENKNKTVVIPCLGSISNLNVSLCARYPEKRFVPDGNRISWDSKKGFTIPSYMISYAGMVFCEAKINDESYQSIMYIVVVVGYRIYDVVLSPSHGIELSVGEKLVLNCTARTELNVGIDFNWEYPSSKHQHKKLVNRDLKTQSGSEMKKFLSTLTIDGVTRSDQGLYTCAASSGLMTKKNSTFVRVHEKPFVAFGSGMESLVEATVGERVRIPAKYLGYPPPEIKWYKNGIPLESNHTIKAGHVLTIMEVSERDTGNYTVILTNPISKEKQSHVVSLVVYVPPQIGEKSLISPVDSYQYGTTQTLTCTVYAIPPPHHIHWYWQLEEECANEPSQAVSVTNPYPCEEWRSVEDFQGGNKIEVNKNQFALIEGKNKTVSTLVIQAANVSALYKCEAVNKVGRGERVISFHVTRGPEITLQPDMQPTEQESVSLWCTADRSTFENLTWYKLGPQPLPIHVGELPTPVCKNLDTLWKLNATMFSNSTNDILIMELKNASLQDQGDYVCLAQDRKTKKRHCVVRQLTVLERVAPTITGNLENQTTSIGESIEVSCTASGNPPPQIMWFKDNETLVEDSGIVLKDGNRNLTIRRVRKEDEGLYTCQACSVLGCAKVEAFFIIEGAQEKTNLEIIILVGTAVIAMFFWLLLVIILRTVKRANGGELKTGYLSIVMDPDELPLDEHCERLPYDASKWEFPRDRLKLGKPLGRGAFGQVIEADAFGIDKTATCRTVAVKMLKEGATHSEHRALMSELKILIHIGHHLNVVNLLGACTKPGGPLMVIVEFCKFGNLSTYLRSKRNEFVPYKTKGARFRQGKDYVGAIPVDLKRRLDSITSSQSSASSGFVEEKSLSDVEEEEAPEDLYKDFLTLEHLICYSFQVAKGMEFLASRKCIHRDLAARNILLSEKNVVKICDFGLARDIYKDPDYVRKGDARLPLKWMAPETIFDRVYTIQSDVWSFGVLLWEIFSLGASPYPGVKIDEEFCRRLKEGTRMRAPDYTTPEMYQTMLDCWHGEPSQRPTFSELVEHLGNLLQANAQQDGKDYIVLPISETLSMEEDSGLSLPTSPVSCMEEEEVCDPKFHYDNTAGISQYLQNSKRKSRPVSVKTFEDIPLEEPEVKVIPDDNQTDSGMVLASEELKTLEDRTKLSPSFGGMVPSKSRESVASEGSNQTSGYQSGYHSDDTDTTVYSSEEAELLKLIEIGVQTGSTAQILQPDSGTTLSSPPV

Compound	IC50 [1]	IC50 (Ephrin type-B receptor 4)	IC50 (Ephrin type-A receptor 2)	IC50 [2]
COc1cc2c(Nc3ccc(Br)c(Cl)c3F)ncnc2cc1OC[C@@H]1C[C@@H]2CN(C(C)C)C[C@@H]2C1 [US9796704, Entry 2]	[…]	< 50 nM		
COc1cc2c(Nc3ccc(Br)c(Cl)c3F)ncnc2cc1OC[C@@H]1C[C@@H]2CN(C(C)=O)C[C@@H]2C1 [US9796704, Entry 3]		< 50 nM		
COc1cc2c(Nc3ccc(Br)c(Cl)c3F)ncnc2cc1OC[C@H]1C[C@H]2CNC[C@H]2C1 [US9796704, Entry 4]		< 50 nM		
CCOC(=O)N1C[C@H]2CC(COc3cc4ncnc(Nc5ccc(Br)c(Cl)c5F)c4cc3OC)C[C@H]2C1 (some centres not stated) [US9796704, Entry 5]	in the range around 10500 nM	< 50 nM		
COc1cc2c(Nc3cc(Cl)c(Cl)cc3F)ncnc2cc1OC[C@H]1CN2CCOCC2CO1 (some centres not stated) [US9796704, Entry 19]	< 50 nM	< 50 nM		
COc1cc2c(Nc3ccc(F)c(Cl)c3F)ncnc2cc1OC[C@@H]1CN2CCOCC2CO1 (some centres not stated) [US9796704, Entry 24]		in the range around 10500 nM		
COc1cc2c(Nc3cc(Cl)c(Br)cc3F)ncnc2cc1OC[C@@H]1CN2CCOCC2CO1 (some centres not stated) [US9796704, Entry 28]		in the range around 525 nM	< 50 nM	
COc1cc2c(Nc3ccc(Cl)c(Cl)c3F)ncnc2cc1OC[C@H]1CN2CCOCC2CO1 (some centres not stated) [US9796704, Entry 29]	in the range around 525 nM	in the range around 525 nM	< 50 nM	
COc1cc2c(Nc3ccc(Cl)c(Cl)c3)ncnc2cc1OCC1CO[C@@H]2C(OC)CO[C@H]12 (some centres not stated) [US9796704, Entry 47]	in the range around 10500 nM	in the range around 10500 nM	in the range around 10500 nM	
C=C1CO[C@@H]2[C@@H](Oc3cc4ncnc(Nc5ccc(Br)c(Cl)c5)c4cc3OC)CO[C@H]12 [US9796704, Entry 81]	in the range around 525 nM	in the range around 525 nM	in the range around 525 nM	
COc1cc2c(Nc3ccc(Br)c(Cl)c3)ncnc2cc1O[C@H]1CO[C@@H]2[C@@H](OC)[C@@H](OC)O[C@@H]21 [US9796704, Entry 82]	in the range around 525 nM	in the range around 525 nM	in the range around 525 nM	
COc1cc2c(Nc3c(F)cccc3F)ncnc2cc1O[C@@H]1CO[C@@H]2[C@H]1OC[C@H]2F [US9796704, Entry 87]		in the range around 525 nM	in the range around 525 nM	
COc1cc2c(Nc3cccc(Cl)c3F)ncnc2cc1O[C@@H]1CO[C@@H]2[C@H]1OC[C@H]2F [US9796704, Entry 88]	in the range around 10500 nM	in the range around 525 nM	in the range around 525 nM	
COc1cc2c(Nc3ccc(F)cc3F)ncnc2cc1O[C@@H]1CO[C@@H]2[C@H]1OC[C@H]2F [US9796704, Entry 90]		in the range around 525 nM	in the range around 525 nM	
COc1cc2c(Nc3cc(F)ccc3F)ncnc2cc1O[C@@H]1CO[C@@H]2[C@H]1OC[C@H]2F [US9796704, Entry 91]	in the range around 525 nM	in the range around 525 nM	in the range around 525 nM	
COc1cc2c(Nc3ccc(F)c(Cl)c3)ncnc2cc1O[C@@H]1CO[C@@H]2[C@H]1OC[C@H]2F [US9796704, Entry 95]	in the range around 525 nM	in the range around 525 nM	in the range around 525 nM	
COc1cc2c(Nc3cc(F)c(Oc4ccc(Cl)cc4)c(F)c3)ncnc2cc1O[C@@H]1CO[C@@H]2[C@H]1OC[C@H]2F [US9796704, Entry 101]	in the range around 525 nM	in the range around 525 nM	in the range around 525 nM	
COc1cc2c(Nc3ccc(Br)c(Cl)c3F)ncnc2cc1O[C@@H]1CO[C@@H]2[C@H]1OC[C@H]2F [US9796704, Entry 102]	in the range around 525 nM	in the range around 525 nM	in the range around 525 nM	
COc1cc2c(Nc3cccc(Cl)c3C)ncnc2cc1O[C@@H]1CO[C@@H]2[C@H]1OC[C@H]2F [US9796704, Entry 110]	in the range around 525 nM	in the range around 525 nM	in the range around 525 nM	
COc1cc2c(Nc3c(F)cc(F)cc3Br)ncnc2cc1O[C@@H]1CO[C@@H]2[C@H]1OC[C@H]2F [US9796704, Entry 120]		in the range around 525 nM	in the range around 525 nM	
COc1cc2c(Nc3cc(C(F)(F)F)ccc3Cl)ncnc2cc1O[C@@H]1CO[C@@H]2[C@H]1OC[C@H]2F [US9796704, Entry 122]		in the range around 525 nM	in the range around 525 nM	
COc1ccc(OC)c(Nc2ncnc3cc(O[C@@H]4CO[C@@H]5[C@H]4OC[C@H]5F)c(OC)cc23)c1 [US9796704, Entry 134]		in the range around 525 nM	in the range around 525 nM	
COc1cc2c(Nc3ccc(Cl)c(Cl)c3)ncnc2cc1OCc1noc(C(C)(C)C)n1 [US9796704, Entry 157]		in the range around 525 nM	in the range around 525 nM	
COc1cc2c(Nc3ccc(Cl)c(Cl)c3)ncnc2cc1OCc1noc(-c2cccc(C(F)(F)F)c2)n1 [US9796704, Entry 166]		in the range around 525 nM	in the range around 525 nM	

Results, then the molecule that gave them:

IC50 [1]	IC50 (Ephrin type-B receptor 4)	IC50 (Ephrin type-A receptor 2)	IC50 [2]	Compound
< 50 nM	< 50 nM			COc1cc2c(Nc3ccc(F)c(Cl)c3F)ncnc2cc1OC[C@H]1CN2CCOCC2CO1 (some centres not stated) [US9796704, Entry 21]
in the range around 525 nM	< 50 nM	< 50 nM		COc1cc2c(Nc3ccc(Br)c(Cl)c3F)ncnc2cc1OC[C@H]1CN2CCOCC2CO1 (some centres not stated) [US9796704, Entry 30]
in the range around 10500 nM	in the range around 10500 nM	in the range around 10500 nM		COc1cc2c(Nc3ccc(F)c(Cl)c3F)ncnc2cc1OCC1CO[C@@H]2[C@@H](OC)CO[C@H]12 (some centres not stated) [US9796704, Entry 45]
	< 50 nM			COc1cc2c(Nc3ccc(Cl)c(Cl)c3)ncnc2cc1OC1C[C@@H]2CN(C)C[C@@H]2C1 (some centres not stated) [US9796704, Entry 59]
in the range around 525 nM	in the range around 525 nM	in the range around 525 nM		COc1cc2c(Nc3ccc(Cl)c(Cl)c3F)ncnc2cc1OCC1CCC2CCCCN2C1 (configuration not stated) [US9796704, Entry 83]
in the range around 525 nM	in the range around 525 nM	in the range around 525 nM		COc1cc2c(Nc3ccc(F)cc3Cl)ncnc2cc1O[C@@H]1CO[C@@H]2[C@H]1OC[C@H]2F [US9796704, Entry 85]
in the range around 525 nM	in the range around 525 nM	in the range around 525 nM		COc1cc2c(Nc3ccc(F)cc3Br)ncnc2cc1O[C@@H]1CO[C@@H]2[C@H]1OC[C@H]2F [US9796704, Entry 86]
	in the range around 525 nM			COc1cc2c(Nc3ccc(F)c(C(F)(F)F)c3)ncnc2cc1O[C@@H]1CO[C@@H]2[C@H]1OC[C@H]2F [US9796704, Entry 89]
in the range around 525 nM	in the range around 525 nM	in the range around 525 nM		COc1cc2c(Nc3cc(Cl)ccc3F)ncnc2cc1O[C@@H]1CO[C@@H]2[C@H]1OC[C@H]2F [US9796704, Entry 93]
in the range around 525 nM	in the range around 525 nM	in the range around 525 nM		COc1cc2c(Nc3c(F)cc(F)cc3F)ncnc2cc1O[C@@H]1CO[C@@H]2[C@H]1OC[C@H]2F [US9796704, Entry 100]
	in the range around 525 nM	in the range around 525 nM		COc1cc2c(Nc3ccc(Cl)cc3F)ncnc2cc1O[C@@H]1CO[C@@H]2[C@H]1OC[C@H]2F [US9796704, Entry 109]
in the range around 525 nM	in the range around 525 nM			COc1cc2c(Nc3ccc(Cl)c(Cl)c3)ncnc2cc1OCc1cccnc1 [US9796704, Entry 179]
in the range around 525 nM		in the range around 10500 nM	in the range around 10500 nM	COc1cc2c(Nc3ccc(Cl)c(Cl)c3)ncnc2cc1OCC1CN(C2CCCC2)CCO1 (configuration not stated) [US9796704, Entry 269]

Reference: BindingDB's records for patent US9796704 (SYMPHONY EVOLUTION, INC., 2017)
